Values belong to the molecule of their own block, whether it stands above or below them.
Tests used:
SMYD3 [1] = molecular target: T1, SMYD3 (Homo sapiens (Human), UniProt Q9H7B4); assay: SMYD3 biochemical assay (SPA, 3H-SAM methylation of MEKK2 protein substrate)
How it was run: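 Full-length native human SMYD3 (E. coli-expressed, tags removed) preincubated with compounds 30 min at room temperature, then reaction started with 3H-SAM and GST-tagged MEKK2 protein in 25 mM Tris-Cl pH 8.0, 1 mM TCEP, 0.005% BSG, 0.005% Tween 20. Quenched with unlabelled SAM (100 uM final); 3H-MEKK2 counted by SPA.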

SMYD3 [2] = molecular target: T1, SMYD3; assay: SMYD3 cell assay (Trimethyl-MEKK2 In-Cell Western in 293T/17 cells); assay type: cell-based
Source text: Trimethyl-MEKK2-in-Cell Western Assay
MEM/Glutamax medium, Optimem Reduced Serum medium, penicillin-streptomycin, 0.05% trypsin and 1×D-PBS were purchased from Life Technologies, Grand Island, N.Y., USA. PBS-10× was purchased from Ambion, Life Technologies, Grand Island, N.Y., USA. PBS with Tween 20 (PBST (10×)) was purchased from KPL, Gaithersburg, Md., USA. Tet System FBS-approved FBS US Source was purchased from Clontech, Mountain View, Calif., USA. Odyssey blocking buffer, 800CW goat anti-rabbit IgG (H+L) antibody, 680CW Goat anti-mouse IgG (H+L) and Licor Odyssey infrared scanner were purchased from Licor Biosciences, Lincoln, Nebr., USA. Tri-methyl-Lysine [A260]-MEKK2 antibody, MEKK2 and SMYD3 plasmids were made at Epizyme. Anti-flag monoclonal mouse antibody was purchased from Sigma, St. Louis, Mo., USA. Methanol was purchased from VWR, Franklin, Mass., USA. 10% Tween 20 was purchased from KPL, Inc., Gaithersburg, Md., USA. Fugene was purchased from Promega, Madison, Wis., USA. The Biotek ELx405 was purchased from BioTek, Winooski, Vt., USA. The multidrop combi was purchased from Thermo Scientific, Waltham, Mass., USA.
Cell Treatment, in Cell Western (ICW) for Detection of Trimethyl-Lysine-MEKK2 and MEKK2.
Plasmids were prepared for delivery to cells by first mixing 1350 μL Opti-MEM with Fugene (81 μL) in a sterile Eppendorf and incubated for five minutes at room temperature (RT). […] Entire volume of Opti-MEM/Fugene mixture was then added to a microfuge tube containing DNA plasmid, mixed and then incubated×15 minutes at RT. […] Medium was then removed, and cells were washed once with PBS in the flask. Trypsin 0.05% (3 mL) was added and cells incubated for three minutes. Room temperature MEM+10% Tet system FBS was added and cells were mixed gently, and counted using the Vi-cell. Cells were seeded at 100,000 cells/mL in 50 μL MEM/10% Tet FBS/Pen/Strep to a 384 well black/clear poly-D-lysine coated plate containing test agent diluted in DMSO. The final top concentration of test compound was 40 μM. […] Plates were incubated×30 minutes at RT in low-airflow area, followed by incubation at 37° C. under 5% CO2 for 24 hours. Medium was aspirated from all wells of assay plates prior to fixation and permeabilization with ice cold (−20° C.) methanol (90 μL/well) for ten minutes. Plates were rinsed with PBS three times on BioTek ELx405. PBS was removed with a final aspiration, and Odyssey blocking buffer (50 μL/well) was added to each well and incubated for one hour at RT. Primary antibody solution was prepared (anti-trimethyl-MEKK2 at 1:600 dilution plus mouse anti-flag antibody at 1:10,000 dilution in diluent (Odyssey Blocking buffer+0.1% Tween 20)) and 20 μL per well was dispensed using the Multidrop Combi. Assay plates were then sealed with foil, and incubated overnight at 4° C. Plates were washed five times with PBS-Tween (1×) on Biotek ELx405 and blotted on paper towel to remove excess reagent.
First, the ratio for each well was determined by:
Each plate included fourteen control wells of DMSO only treatment (Minimum Inhibition) as well as fourteen control wells for maximum inhibition (Background). The average of the ratio values for each control type was calculated and used to determine the percent inhibition for each test well in the plate. Reference compound was serially diluted two-fold in DMSO for a total of nine test concentrations, beginning at 40 μM.
Percent inhibition was calculated (below).
Non-linear regression curves were generated to calculate the IC50 and dose-response relationship using triplicate wells per concentration of compound.

[3] = read-out: SMYD3 Biochem IC50 (μM)*
[4] = average of n = 1 to n = 50, read-out: SMYD3 Biochem IC50
[5] = average of n = 1 to n = 50, read-out: SMYD3 Cell IC50
[6] = Table 2A, read-out: SMYD3 Biochem IC50
[7] = Table 2A, read-out: SMYD3 Cell IC50
[8] = 293T/17 cells, read-out: SMYD3 Cell IC50 (μM)*

T1 sequence (Q9H7B4 whole entry): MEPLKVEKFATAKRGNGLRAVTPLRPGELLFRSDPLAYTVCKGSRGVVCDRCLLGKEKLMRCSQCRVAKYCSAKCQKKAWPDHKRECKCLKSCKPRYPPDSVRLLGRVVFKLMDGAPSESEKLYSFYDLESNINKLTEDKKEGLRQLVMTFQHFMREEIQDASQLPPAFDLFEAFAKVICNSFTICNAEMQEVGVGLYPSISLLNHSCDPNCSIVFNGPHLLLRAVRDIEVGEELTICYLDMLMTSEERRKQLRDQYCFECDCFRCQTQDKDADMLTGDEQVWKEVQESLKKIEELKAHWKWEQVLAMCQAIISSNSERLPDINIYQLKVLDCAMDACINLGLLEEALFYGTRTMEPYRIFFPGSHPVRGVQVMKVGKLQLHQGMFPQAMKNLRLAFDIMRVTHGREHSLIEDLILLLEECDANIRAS

Compound: CN1CCC(CS(=O)(=O)N2[C@@H]3CC[C@H]2C[C@@H](NC(=O)c2cc(C4CC4)on2)C3)CC1 [Cpd. No. 770, 5-cyclopropyl-N-((1S,3r,5R)-8-((l-methylpiperidin-4-yl)methylsulfonyl)-8-aza-bicyclo[3.2.1]octan-3-yl)isoxazole-3-carboxamide]
IC50 (SMYD3 [1]; read-out: SMYD3 Biochem IC50*): 0.00088 µM
IC50 (SMYD3 [2]; read-out: SMYD3 Cell IC50*): 0.0192 µM

IC50 (SMYD3 [1]; [3]): 0.291 µM
IC50 (SMYD3 [2]; read-out: SMYD3 Cell IC50 (μM)*): 3.22 µM
Compound: C[C@@H]1CN(C(=O)CC2CCNCC2)CC[C@@H]1NC(=O)c1cc(C2CC2)on1 [compound 149, 5-cyclopropyl-N-((3R,4S)-3-methyl-1-(2-(piperidin-4-yl)acetyl)piperidin-4-yl)isoxazole-3-carboxamide]

Compound: O=C(N[C@H]1C[C@H]2CC[C@@H](C1)N2S(=O)(=O)N1CCC(NCc2ccc(F)cc2)CC1)c1cc(C2CC2)on1 [compound 848, 5-cyclopropyl-N-((1R,3r,5S)-8-((4-((4-fluorobenzyl)amino)piperidin-1-yl)sulfonyl)-8-azabicyclo[3.2.1]octan-3-yl)isoxazole-3-carboxamide]
IC50 (SMYD3 [1]; read-out: SMYD3 Biochem IC50*): 0.00573 µM
IC50 (SMYD3 [2]; read-out: SMYD3 Cell IC50*): 0.153 µM

Compound: CN(CCN1CCOCC1)CCS(=O)(=O)N1[C@@H]2CC[C@H]1C[C@@H](NC(=O)c1cc(C3CC3)on1)C2 [compound 742, 5-cyclopropyl-N-((1R,3r,5S)-8-((2-(methyl(2-morpholinoethyl)amino)ethyl)sulfonyl)-8-azabicyclo[3.2.1]octan-3-yl)isoxazole-3-carboxamide]
IC50 (SMYD3 [1]; [4]): 0.513 µM
IC50 (SMYD3 [2]; [5]): 0.899 µM

Compound: O=C(N[C@H]1C[C@H]2CC[C@@H](C1)N2S(=O)(=O)N1CC2CC(C1)N2)c1cc(C2CC2)on1 [compound 571, N-((1R,3r,5S)-8-((3,6-diazabicyclo[3.1.1]heptan-3-yl)sulfonyl)-8-azabicyclo[3.2.1]octan-3-yl)-5-cyclopropylisoxazole-3-carboxamide]
IC50 (SMYD3 [1]; [6]): 0.0075 µM
IC50 (SMYD3 [2]; [7]): 0.0992 µM

IC50 (SMYD3 [1]; [3]): > 10 µM
IC50 (SMYD3 [2]; [8]): > 40 µM
Compound: C[C@@H]1C[C@H](NC(=O)c2cc(C3CC3)on2)CCN1S(=O)(=O)c1cn(C)cn1 [compound 294, 5-cyclopropyl-N-((2R,4R)-2-methyl-1-((1-methyl-1H-imidazol-4-yl)sulfonyl)piperidin-4-yl)isoxazole-3-carboxamide]

Compound: NCc1ccc(S(=O)(=O)N2[C@@H]3CC[C@H]2C[C@@H](NC(=O)c2cc(C4CC4)on2)C3)c(Cl)c1 [compound 968, N-((1R,3r,5S)-8-((4-(aminomethyl)-2-chlorophenyl)sulfony1)-8-azabicyclo[3.2.1]octan-3-yl)-5-cyclopropylisoxazole-3-carboxamide]
IC50 (SMYD3 [1]; IC50 values are an average of n = 1 to n = 50, read-out: SMYD3 Biochem IC50*): 0.0883 µM
IC50 (SMYD3 [2]; IC50 values are an average of n = 1 to n = 50, read-out: SMYD3 Cell IC50*): ≥ 10 µM

Compound: CC(C)CNC1CCN(S(=O)(=O)N2[C@@H]3CC[C@H]2C[C@@H](NC(=O)c2cc(C4CC4)on2)C3)CC1 [compound 853, 5-cyclopropyl-N-((1R,3r,5S)-8-((4-(isobutylamino)piperidin-1-yl)sulfonyl)-8-azabicyclo[3.2.1]octan-3-yl)isoxazole-3-carboxamide]
IC50 (SMYD3 [1]; read-out: SMYD3 Biochem IC50*): 0.00655 µM
IC50 (SMYD3 [2]; read-out: SMYD3 Cell IC50*): 0.071 µM

Compound: O=C(N[C@H]1C[C@H]2CC[C@@H](C1)N2S(=O)(=O)N1CCC(NCCN2CCOCC2)CC1)c1cc(C2CC2)on1 [compound 947, 5-cyclopropyl-N-((1R,3r,5S)-8-((4-((2-morpholinoethyl)amino)piperidin-1-yl)sulfonyl)-8-azabicyclo[3.2.1]octan-3-yl)isoxazole-3-carboxamide]
IC50 (SMYD3 [1]; read-out: SMYD3 Biochem IC50*): 0.0523 µM
IC50 (SMYD3 [2]; read-out: SMYD3 Cell IC50*): 0.338 µM

Compound: CC(C)CCNC1CCN(S(=O)(=O)N2[C@@H]3CC[C@H]2C[C@@H](NC(=O)c2cc(C4CC4)on2)C3)CC1 [compound 821, 5-cyclopropyl-N-((1R,3r,5S)-8-((4-(isopentylamino)piperidin-1-yl)sulfonyl)-8-azabicyclo[3.2.1]octan-3-yl)isoxazole-3-carboxamide]
IC50 (SMYD3 [1]; read-out: SMYD3 Biochem IC50*): 0.00328 µM
IC50 (SMYD3 [2]; read-out: SMYD3 Cell IC50*): 0.0585 µM

Compound: CC(C)c1cc(C(=O)N[C@H]2C[C@H]3CC[C@@H](C2)N3S(=O)(=O)N2CCC(N)CC2)no1 [compound 911, N-((1R,3r,5S)-8-((4-aminopiperidin-1-yl)sulfonyl)-8-azabicyclo[3.2.1]octan-3-yl)-5-isopropylisoxazole-3-carboxamide]
IC50 (SMYD3 [1]; read-out: SMYD3 Biochem IC50*): 0.0205 µM
IC50 (SMYD3 [2]; read-out: SMYD3 Cell IC50*): 0.144 µM

Compound: C[C@H](NC1CCN(S(=O)(=O)N2[C@@H]3CC[C@H]2C[C@@H](NC(=O)c2cc(C4CC4)on2)C3)CC1)c1ccc(F)cc1 [compound 943, 5-cyclopropyl-N-((1R,3S,5S)-8-((4-(((S)-1-(4-fluorophenyl)ethyl)amino)piperidin-1-yl)sulfonyl)-8-azabicyclo[3.2.1]octan-3-yl)isoxazole-3-carboxamide]
IC50 (SMYD3 [1]; read-out: SMYD3 Biochem IC50*): 0.0481 µM
IC50 (SMYD3 [2]; read-out: SMYD3 Cell IC50*): 0.602 µM

Compound: O=C(N[C@H]1C[C@H]2CC[C@@H](C1)N2S(=O)(=O)N1C2CNCC1C2)c1cc(C2CC2)on1 [compound 832, N-((1R,3r,5S)-8-((3,6-diazabicyclo[3.1.1]heptan-6-yl)sulfonyl)-8-azabicyclo[3.2.1]octan-3-yl)-5-cyclopropylisoxazole-3-carboxamide]
IC50 (SMYD3 [1]; read-out: SMYD3 Biochem IC50*): 0.00438 µM
IC50 (SMYD3 [2]; read-out: SMYD3 Cell IC50*): 0.134 µM

IC50 (SMYD3 [1]; [6]): 0.0143 µM
IC50 (SMYD3 [2]; [7]): 0.333 µM
Compound: C[C@H]1CN(S(=O)(=O)CCCN)[C@@H](C)C[C@H]1NC(=O)c1cc(C2CC2)on1 [compound 601, N-((2S,4R,5S)-1-((3-aminopropyl)sulfonyl)-2,5-dimethylpiperidin-4-yl)-5-cyclopropylisoxazole-3-carboxamide]

Compound: CN(C)C1CCN(CCS(=O)(=O)N2[C@@H]3CC[C@H]2C[C@@H](NC(=O)c2cc(C4CC4)on2)C3)C1 (stereo partly drawn) [compound 651, 5-cyclopropyl-N-((1R,3r,5S)-8-((2-(3-(dimethylamino)pyrrolidin-1-yl)ethyl)sulfonyl)-8-azabicyclo[3.2.1]octan-3-yl)isoxazole-3-carboxamide]
IC50 (SMYD3 [1]; [4]): 0.0506 µM
IC50 (SMYD3 [2]; [5]): 0.532 µM

Compound: CN1CCC(NS(=O)(=O)N2[C@@H]3CC[C@H]2C[C@@H](NC(=O)c2cc(C4CC4)on2)C3)CC1 [compound 893, 5-cyclopropyl-N-((1R,3r,5S)-8-(N-(1-methylpiperidin-4-yl)sulfamoyl)-8-azabicyclo[3.2.1]octan-3-yl)isoxazole-3-carboxamide]
IC50 (SMYD3 [1]; read-out: SMYD3 Biochem IC50*): 0.0137 µM
IC50 (SMYD3 [2]; read-out: SMYD3 Cell IC50*): 0.239 µM

Compound: NCCNCCS(=O)(=O)N1[C@@H]2CC[C@H]1C[C@@H](NC(=O)c1cc(C3CC3)on1)C2 [compound 596, N-((1R,3r,5S)-8-((2-((2-aminoethyl)amino)ethyl)sulfonyl)-8-azabicyclo[3.2.1]octan-3-yl)-5-cyclopropylisoxazole-3-carboxamide]
IC50 (SMYD3 [1]; [6]): 0.0128 µM
IC50 (SMYD3 [2]; [7]): 0.379 µM

IC50 (SMYD3 [1]; [6]): 0.0009 µM
IC50 (SMYD3 [2]; [7]): 0.0239 µM
Compound: C[C@H]1C[C@@H](NC(=O)c2cc(C3CC3)on2)CCN1S(=O)(=O)CC1CCN(CCc2ccccc2)CC1 [compound 530, 5-cyclopropyl-N-((2S,4S)-2-methyl-1-(((1-phenethylpiperidin-4-yl)methyl)sulfonyl)piperidin-4-yl)isoxazole-3-carboxamide]

Compound: CC(C)CN(C)c1ccc(S(=O)(=O)N2CC[C@H](NC(=O)c3cc(C4CC4)on3)C[C@@H]2C)cn1 [compound 381, 5-cyclopropyl-N-((2S,4S)-1-((6-(isobutyl(methyl)amino)pyridin-3-yl)sulfonyl)-2-methylpiperidin-4-yl)isoxazole-3-carboxamide]
IC50 (SMYD3 [1]; [3]): > 10 µM
IC50 (SMYD3 [2]; [8]): > 40 µM

From US10577363B2, “Substituted piperidine compounds” (EPIZYME, INC., priority 2014, dated 2020)
